In patent US20090248141A1, “Shape Memory Polymer Medical Devices” (THE REGENTS OF THE UNIVERSITY OF COLORADO, priority 2006, published 2009):

Test: Cytotoxicity tests of photoinitiator in polymer system
Type: cell-based
Conditions: photoinitiator at about 0.01-1 wt % of the polymer system
Procedure: A UV-Lamp (Model B100AP; Black-Ray) was used to photopolymerize the solutions for 10 minutes at an intensity of 10 mW/cm^2. The mould is slowly but constantly rotated during photopolymerization. After processing of all materials, polymers were heat treated at 90° C. for 1 hour to ensure the complete conversion of monomers. The photoinitiator 2,2-dimethoxy-2-phenylacetephenone was used although a variety of other initiators can also be used. […] Glass transition temperature (Tg) and rubbery modulus can be controlled by, for example, changing the weight percent (wt %) of the crosslinker, for example, PEGDMA (Mn 550) as shown in FIG. 9.

With COC(OC)(C(=O)c1ccccc1)c1ccccc1 [2,2-dimethoxy-2-phenylacetephenone] the “biocompatibility of the polymer (cytotoxicity tests)” value was “should not affect the biocompatibility of the polymer”.
